Consider 20 molecules from US8716287B2, “Pharmaceutical compounds” (Sentinel Oncology Limited, priority 2010, dated 2014).

The target of one series is Chk-1 kinase (Homo sapiens (Human), UniProt O14757). The experiment in a line: Chk-1 kinase inhibiting activity (33P-ATP filter assay, CHKtide substrate). The format is biochemical. How it is done:
The compounds of the invention were tested for activity against Chk-1 kinase using the materials and protocols set out below.
Base Reaction buffer: 20 mM Hepes (pH 7.5), 10 mM MgCl2, 1 mM EGTA, 0.02% Brij35, 0.02 mg/ml BSA, 0.1 mM Na3VO4, 2 mM DTT, 1% DMSO
*Required cofactors are added individually to each kinase reaction
(i) Prepare indicated substrate in freshly prepared Base Reaction Buffer
(ii) Deliver any required cofactors to the substrate solution above
(iii) Deliver indicated kinase into the substrate solution and gently mix
(iv) Deliver compounds in DMSO into the kinase reaction mixture
(v) Deliver ^33P-ATP (specific activity 0.01 μCi/μl final) into the reaction mixture to initiate the reaction.
(vi) Incubate kinase reaction for 120 minutes at room temperature
(vii) Reactions are spotted onto P81 ion exchange paper (Whatman #3698-915)
(viii) Wash filters extensively in 0.1% phosphoric acid.
(ix) Dry filters and measure counts in scintillation counter
Recombinant full length construct, N-terminal GST tagged, purified from insect cells.
No special measures were taken to activate this kinase.
Final concentration in assay=0.5 nM
Peptide sequence: [[…]]
Final concentration in assay=20 μM
No additional cofactors are added to the reaction mixture

The next series has as its system HT29 cells. The experiment in a line: Sensitisation of HT29 cells to SN38 (Alamar blue cell growth). It counts as cell-based, human. The conditions noted are these: for fold shift in the IC50 value of SN38: HT29 cells. How it is done:
Studies were carried out to test the sensitising effect of compounds of the invention on the ability of the DNA damaging compound 7-ethyl-10-hydroxycamptothecin (SN38), an active metabolite of the anti-cancer drug irinotecan, to inhibit cell growth in HT29 cells.
The following protocol was used:
(a) HT29 cells were seeded in 96-well plates at a concentration of 3000 cells per well and allowed to adhere overnight prior to addition of compound or vehicle control.
(b) SN38 was prepared from a 10 mM DMSO stock to give a final concentration range of 1 μM, 300 nM, 100 nM, 30 nM, 10 nM, 3 nM, 1 nM, and vehicle control.
(c) Test compounds were prepared from 10 mM DMSO stocks to typically give a final concentration range of 3 μM, 1 μM, 0.3 μM. 0.1 μM, 0.03 μM and vehicle control. The final DMSO content was 0.4%.
(d) Test compounds were incubated with the cells for 72 h at 37° C. 5% CO2 in a humidified atmosphere.
(e) Alamar blue 10% (v/v) was then added and incubated for a further 6 h, and fluorescent product detected using the BMG FLUOstar plate reader.
(f) Data were analysed using a 4-parameter logistic equation in GraphPad Prism.
Sensitisation is determined by the enhancement in IC50 of SN38 by the addition of the Chk-1 kinase inhibitor. In the protocol described above, the IC50 for SN-38 is determined the presence of varying doses of the Chk-1 inhibitor. The fold shift represents a decrease in IC50 for SN-38 at a dose of Chk-1 inhibitor that has no effect by itself.
Background: Resazurin is reduced to fluorescent resorufin, in cell work by metabolically active cells.

[1] abbreviates: Chk-1 kinase, Table 3, read-out: IC50.
[2] abbreviates: ranges given, read-out: IC50 values against Chk-1 kinase.

SMILES strings stand for the structures. pIC50: −log10 of the molar value. “Also recorded” adds a separate entry of the source. Structures can show the parent of a compound that is named as a salt. Where two headings read alike, the source gives them in different places. Where only a bound is given, the exact number is not on record here.

Sequence of Chk-1 kinase (O14757 whole entry): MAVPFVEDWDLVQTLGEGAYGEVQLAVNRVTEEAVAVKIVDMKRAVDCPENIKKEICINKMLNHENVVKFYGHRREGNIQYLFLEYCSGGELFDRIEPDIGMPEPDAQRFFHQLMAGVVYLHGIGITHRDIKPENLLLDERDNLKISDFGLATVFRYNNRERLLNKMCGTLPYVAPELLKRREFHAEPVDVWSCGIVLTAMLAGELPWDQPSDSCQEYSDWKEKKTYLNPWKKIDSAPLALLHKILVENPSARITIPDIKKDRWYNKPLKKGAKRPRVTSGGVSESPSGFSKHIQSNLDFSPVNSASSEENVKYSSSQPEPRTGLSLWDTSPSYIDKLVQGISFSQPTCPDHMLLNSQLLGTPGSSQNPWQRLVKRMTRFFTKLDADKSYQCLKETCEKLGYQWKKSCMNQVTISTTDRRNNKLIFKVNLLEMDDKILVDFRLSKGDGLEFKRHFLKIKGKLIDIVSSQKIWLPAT

What is called pIC50 is the IC50 on a negative log10 scale, so that one unit is a factor of ten. In the case of `COc1ccccc1CNCCc1ccc(NC(=O)Nc2cnc(C#N)cn2)cc1Cl` [Example 16, 1-{3-Chloro-4-[2-(2-methoxy-benzylamino)-ethyl]-phenyl}-3-(5-cyano-pyrazin-2-yl)-urea], the values for the negative-log IC50 (pIC50) on Chk-1 kinase (setting [1]) and at Chk-1 kinase (setting [2]) were 7.89 and 7.00 to 8.00, respectively. The “fold shift in the IC50 value of SN38” value in the series with HT29 cells (test compound at 1 μM) is recorded as “two”.

As to `N#Cc1cnc(NC(=O)Nc2ccc(CCNCc3ccc(Cl)cc3)c(Cl)c2)cn1` [Example 8, 1-{3-Chloro-4-[2-(4-chloro-benzylamino)-ethyl]-phenyl}-3-(5-cyano-pyrazin-2-yl)-urea], the pIC50 at Chk-1 kinase (setting [1]) is 7.96; on Chk-1 kinase (setting [2]), 7.00 to 8.00. Further, in the series with HT29 cells (test compound at 3 μM), the “fold shift in the IC50 value of SN38” value is reported as “three; also recorded: greater than ten”.

On to `N#Cc1cnc(NC(=O)Nc2ccc(CCNCc3ccc(OC(F)(F)F)cc3)c(Cl)c2)cn1` [Example 14, 1-{3-Chloro-4-[2-(4-trifluoromethoxy-benzylamino)-ethyl]-phenyl}-3-(5-cyano-pyrazin-2-yl)-urea], for which the negative-log IC50 (pIC50) is 7.17 at Chk-1 kinase (setting [1]) and 7.00 to 8.00 on Chk-1 kinase (setting [2]). In the series with HT29 cells (test compound at 3 μM), the “fold shift in the IC50 value of SN38” value is “three”.

Regarding `COc1ccc(CNCCc2ccc(NC(=O)Nc3cnc(C#N)cn3)cc2Cl)cc1` [Example 15, 1-{3-Chloro-4-[2-(4-methoxy-benzylamino)-ethyl]-phenyl}-3-(5-cyano-pyrazin-2-yl)-urea], the pIC50 is 8.46 at Chk-1 kinase (setting [1]) and over 8.00 at Chk-1 kinase (setting [2]). Moreover, in the series on HT29 cells (test compound at 3 μM), the “fold shift in the IC50 value of SN38” value was “three; also recorded: greater than ten”.

For `COc1cc(CCNCCc2ccc(F)cc2)ccc1NC(=O)Nc1cnc(C#N)cn1` [Example 31, 1-(5-Cyano-pyrazin-2-yl)-3-(4-{2-[2-(4-fluoro-phenyl)-ethylamino]-ethyl}-2-methoxy-phenyl)-urea], the negative-log IC50 (pIC50) is 8.57 on Chk-1 kinase (setting [1]) and over 8.00 at Chk-1 kinase (setting [2]). For the same molecule, in the series on HT29 cells (test compound at 3 μM), the “fold shift in the IC50 value of SN38” value was “three”.

Turning to `C[C@H](NCCc1ccc(NC(=O)Nc2cnc(C#N)cn2)cc1Cl)c1ccc(F)cc1` [Example 18, 1-(3-Chloro-4-{2-[(S)-1-(4-fluoro-phenyl)-ethylamino]-ethyl}-phenyl)-3-(5-cyano-yrazin-2-yl)-urea hydrochloride], the negative logarithm of the IC50 (pIC50) at Chk-1 kinase (setting [1]) is 7.68; on Chk-1 kinase (setting [2]), 7.00 to 8.00. Further, in the series with HT29 cells (test compound at 1 μM), the “fold shift in the IC50 value of SN38” value was “two”.

`N#Cc1cnc(NC(=O)Nc2ccc(CCNCc3cccc(F)c3)c(Cl)c2)cn1` [Example 9, 1-{3-Chloro-4-[2-(3-fluoro-benzylamino)-ethyl]-phenyl}-3-(5-cyano-pyrazin-2-yl)-urea]: the negative-log IC50 (pIC50) is 8.70 on Chk-1 kinase (setting [1]) and over 8.00 on Chk-1 kinase (setting [2]). For the same molecule, the “fold shift in the IC50 value of SN38” value with HT29 cells (test compound at 3 μM) is “three; also recorded: greater than ten”.

As to `N#Cc1cnc(NC(=O)Nc2cccc(CCNCc3ccc(F)cc3)c2)cn1` [Example 34, 1-(5-Cyano-pyrazin-2-yl)-3-{3-[2-(4-fluoro-benzylamino)-ethyl]-phenyl}-urea], on Chk-1 kinase (setting [1]), the pIC50 was 7.16. Besides, in the series with HT29 cells (test compound at 3 μM), the “fold shift in the IC50 value of SN38” value is “three”.

In the case of `COc1cc(CCNCc2ccc(F)cc2)ccc1NC(=O)Nc1cnc(C)cn1` [Example 27, 1-{4-[2-(4-Fluoro-benzylamino)-ethyl]-2-methoxy-phenyl}-3-(5-methyl-pyrazin-2-yl)-urea hydrochloride], the negative logarithm of the IC50 (pIC50) is 7.48 at Chk-1 kinase (setting [1]) and 7.00 to 8.00 on Chk-1 kinase (setting [2]). The “fold shift in the IC50 value of SN38” value with HT29 cells (test compound at 3 μM) was “three”.

For the molecule `COc1cccc(CNCCc2ccc(NC(=O)Nc3cnc(C#N)cn3)cc2Cl)c1` [Example 12, 1-{3-Chloro-4-[2-(3-methoxy-benzylamino)-ethyl]-phenyl}-3-(5-cyano-pyrazin-2-yl)-urea], the pIC50 was 7.96 on Chk-1 kinase (setting [1]) and 7.00 to 8.00 at Chk-1 kinase (setting [2]). Also, the “fold shift in the IC50 value of SN38” value in the series on HT29 cells (test compound at 3 μM) is “three; also recorded: greater than ten”.

Take `COc1cc(CNCc2ccccc2)ccc1NC(=O)Nc1cnc(C)cn1` [Compound 338, reference compound]: at Chk-1 kinase (comparative tests, Example 70, read-out: Chk-1 IC50), the pIC50 was 7.00. Moreover, in the series with HT29 cells (SN38 sensitisation assay in HT-29 cells, compound at 3 μM), the Cell potentiation factor was 5 fold.

As for `N#Cc1cnc(NC(=O)Nc2ccc(CCNCCc3ccc(F)cc3)c(Cl)c2)cn1` [Example 7, 1-(3-Chloro-4-(2-(4-fluorophenethylamino)ethyl)phenyl)-3-(5-cyanopyrazin-2-yl)urea], the figures for the pIC50 at Chk-1 kinase (setting [1]) and at Chk-1 kinase (setting [2]) were 7.80 and 7.00 to 8.00, respectively. The “fold shift in the IC50 value of SN38” value with HT29 cells (test compound at 1 μM) is on record as “two”.

In the case of `N#Cc1cnc(NC(=O)Nc2ccc(CCNCc3ccc(F)cc3F)c(Cl)c2)cn1` [Example 5, 1-{3-Chloro-4-[2-(2,4-difluoro-benzylamino)-ethyl]-phenyl}-3-(5-cyano-pyrazin-2-yl)-urea], the pIC50 was 7.42 on Chk-1 kinase (setting [1]) and 7.00 to 8.00 on Chk-1 kinase (setting [2]). Besides, in the series with HT29 cells (test compound at 3 μM), the “fold shift in the IC50 value of SN38” value is recorded as “three”.

In the case of `N#Cc1cnc(NC(=O)Nc2ccc(CCNCc3cccc(Cl)c3)c(Cl)c2)cn1` [Example 13, 1-{3-Chloro-4-[2-(3-chloro-benzylamino)-ethyl]-phenyl}-3-(5-cyano-pyrazin-2-yl)-urea hydrochloride], the values for the pIC50 at Chk-1 kinase (setting [1]) and on Chk-1 kinase (setting [2]) were 7.43 and 7.00 to 8.00, respectively. Further, in the series on HT29 cells (test compound at 1 μM), the “fold shift in the IC50 value of SN38” value is recorded as “two”.

Consider `N#Cc1cnc(NC(=O)Nc2ccc(CCNCc3ccc(F)c(F)c3)c(Cl)c2)cn1` [Example 40, 1-{3-Chloro-4-[2-(3,4-difluoro-benzylamino)-ethyl]-phenyl}-3-(5-cyano-pyrazin-2-yl)-urea], for which the negative-log IC50 (pIC50) at Chk-1 kinase (setting [1]) is 8.10; on Chk-1 kinase (setting [2]) it was over 8.00. Also, in the series with HT29 cells (test compound at 3 μM), the “fold shift in the IC50 value of SN38” value is on record as “three”.

As to `N#Cc1cnc(NC(=O)Nc2ccc(CCNCc3ccc(F)cc3F)cc2)cn1` [Example 3, 1-(5-Cyano-pyrazin-2-yl)-3-{4-[2-(2,4-difluoro-benzylamino)-ethyl]-phenyl}-urea], the pIC50 is 6.75 on Chk-1 kinase (setting [1]) and 6.00 to 7.00 on Chk-1 kinase (setting [2]). In addition, in the series on HT29 cells (test compound at 3 μM), the “fold shift in the IC50 value of SN38” value is recorded as “three”.

With `CN(CCc1ccc(NC(=O)Nc2cnc(C#N)cn2)cc1Cl)Cc1ccc(F)cc1` [Example 11, 1-(3-Chloro-4-{2-[(4-fluoro-benzyl)-methyl-amino]-ethyl}-phenyl)-3-(5-cyano-pyrazin-2-yl)-urea], the negative-log IC50 (pIC50) is 6.84 on Chk-1 kinase (setting [1]) and 6.00 to 7.00 on Chk-1 kinase (setting [2]). Further, in the series with HT29 cells (test compound at 3 μM), the “fold shift in the IC50 value of SN38” value is given as “three”.

`N#Cc1cnc(NC(=O)Nc2ccc(OCCNCc3ccc(F)cc3F)c(Cl)c2)cn1` [Example 6, 1-{3-Chloro-4-[2-(2,4-difluoro-benzylamino)-ethoxy]-phenyl}-3-(5-cyano-pyrazin-2-yl)-urea]: the negative logarithm of the IC50 (pIC50) is 7.59 at Chk-1 kinase (setting [1]) and 7.00 to 8.00 at Chk-1 kinase (setting [2]). The “fold shift in the IC50 value of SN38” value in the series with HT29 cells (test compound at 3 μM) is given as “three”.

As to `N#Cc1cnc(NC(=O)Nc2ccc(CCNCc3ccc(F)cc3)cc2)cn1` [Example 2, 1-(5-Cyano-pyrazin-2-yl)-3-{4-[2-(4-fluoro-benzylamino)-ethyl]-phenyl}-urea], the pIC50 on Chk-1 kinase (setting [1]) was 7.36; at Chk-1 kinase (setting [2]), 7.00 to 8.00. Besides, in the series with HT29 cells (test compound at 3 μM), the “fold shift in the IC50 value of SN38” value is given as “three”.

For `COc1cc(CCNCc2ccc(F)cc2)c(Br)cc1NC(=O)Nc1cnc(C#N)cn1` [Example 42, 1-{5-Bromo-4-[2-(4-fluoro-benzylamino)-ethyl]-2-methoxy-phenyl}-3-(5-cyano-pyrazin-2-yl)-urea hydrochloride], the negative logarithm of the IC50 (pIC50) on Chk-1 kinase (setting [1]) was 9.35; on Chk-1 kinase (setting [2]) it was over 8.00. For the same molecule, the “fold shift in the IC50 value of SN38” value with HT29 cells (test compound at 1 μM) is given as “two”; with HT29 cells (test compound at 3 μM), “greater than ten”.
